According to patent publication US10286038B2, “Lysosome membrane protein 2 (LIMP-2) based peptides and related uses” (Northwestern University, priority 2016, dated 2019):

Legend:
[1] = target: bovine serum albumin (BSA) (Bos taurus, UniProt P02769); assay: peptide pulldown of albumin (BSA); assay type: binding; details: neutral pH
Description: (§1) FIG. 6: Characterization of a helical LIMP-2-derived peptide. […] B) In vitro peptide pulldown assay: helix 5 peptides were incubated with recombinant LAMAN and bovine serum albumin (BSA). INPUT and BOUND fractions were loaded onto SDS-PAGE and proteins visualized by coomassie staining (CBB). C) Densitometry of LAMAN and BSA protein bound to peptide, normalized to protein fraction bound to beads only (buffer; n=2-3). D) and E) Activity assay of recombinant (D) GC and (E) LAMAN incubated with different excess molarities (1×-10×) of helix 5 peptide (n=β-5) and LIMP-2 ectodomain (n=4). GC activities were normalized and statistical analyses compared to 0 input of BSA/helix 5 peptide. F) Peptide-pulldown of GC constructs overexpressed in N2a cells with subsequent Western blot analysis (α-hGC) utilizing helix 5 and the 3×D control peptide as a negative binding control. G) Densitometry of GC protein bound to peptides; each construct is normalized to buffer only. H) Live-cell lysosomal GC activity of H4 cells after uptake of helix 5 and 3×D TAT peptides. GC activity was measures every 30 minutes up to 3.5 hours. Cells were treated with DMSO or the “lysosomal inhibitor” bafilomycinA1. […] Lysosomal activity is calculated by subtracting the AUC of DMSO with the AUC of bafilomycinA1 treated samples (n=4). […] GC activity was measured from 16-74 hours and is shown in mU/mg (n=3). […]

[2] = target: T1, recombinant α-mannosidase (LAMAN) (Homo sapiens, UniProt O00754); assay: peptide pulldown of recombinant LAMAN; assay type: binding; details: neutral pH
T1 construct: purchased Zymenex, Hillerod, DK
T1 sequence (O00754 50-1011): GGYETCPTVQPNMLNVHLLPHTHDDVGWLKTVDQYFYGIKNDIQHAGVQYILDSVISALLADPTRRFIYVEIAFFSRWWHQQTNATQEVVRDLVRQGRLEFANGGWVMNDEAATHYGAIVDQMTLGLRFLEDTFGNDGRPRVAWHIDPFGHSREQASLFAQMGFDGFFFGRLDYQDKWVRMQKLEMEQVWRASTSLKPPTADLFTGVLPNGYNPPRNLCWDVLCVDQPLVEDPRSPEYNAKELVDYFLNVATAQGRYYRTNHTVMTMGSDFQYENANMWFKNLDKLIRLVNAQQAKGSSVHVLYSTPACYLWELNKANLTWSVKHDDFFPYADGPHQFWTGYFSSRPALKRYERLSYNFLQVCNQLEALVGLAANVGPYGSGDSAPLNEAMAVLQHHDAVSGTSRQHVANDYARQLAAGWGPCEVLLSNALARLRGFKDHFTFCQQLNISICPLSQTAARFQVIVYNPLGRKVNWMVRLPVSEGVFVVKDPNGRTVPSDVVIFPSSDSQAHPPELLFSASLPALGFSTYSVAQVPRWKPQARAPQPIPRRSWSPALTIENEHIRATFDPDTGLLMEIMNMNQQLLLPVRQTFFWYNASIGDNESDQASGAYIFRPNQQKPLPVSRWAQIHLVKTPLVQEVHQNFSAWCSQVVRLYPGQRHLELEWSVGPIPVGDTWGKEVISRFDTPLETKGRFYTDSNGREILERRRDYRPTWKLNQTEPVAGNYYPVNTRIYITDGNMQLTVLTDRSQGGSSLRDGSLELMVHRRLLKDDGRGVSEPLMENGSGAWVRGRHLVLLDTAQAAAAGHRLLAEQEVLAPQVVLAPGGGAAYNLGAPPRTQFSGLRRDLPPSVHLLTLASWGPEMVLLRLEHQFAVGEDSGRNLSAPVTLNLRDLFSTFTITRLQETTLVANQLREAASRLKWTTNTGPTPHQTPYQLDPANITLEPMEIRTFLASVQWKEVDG
Description: as §1

[3] = target: T2, recombinant N370S mutant GC (Homo sapiens, UniProt P04062, N409S); assay: peptide pulldown of recombinant N370S mutant GC; assay type: binding; details: cell-free system
T2 sequence (P04062 40-536 N409S): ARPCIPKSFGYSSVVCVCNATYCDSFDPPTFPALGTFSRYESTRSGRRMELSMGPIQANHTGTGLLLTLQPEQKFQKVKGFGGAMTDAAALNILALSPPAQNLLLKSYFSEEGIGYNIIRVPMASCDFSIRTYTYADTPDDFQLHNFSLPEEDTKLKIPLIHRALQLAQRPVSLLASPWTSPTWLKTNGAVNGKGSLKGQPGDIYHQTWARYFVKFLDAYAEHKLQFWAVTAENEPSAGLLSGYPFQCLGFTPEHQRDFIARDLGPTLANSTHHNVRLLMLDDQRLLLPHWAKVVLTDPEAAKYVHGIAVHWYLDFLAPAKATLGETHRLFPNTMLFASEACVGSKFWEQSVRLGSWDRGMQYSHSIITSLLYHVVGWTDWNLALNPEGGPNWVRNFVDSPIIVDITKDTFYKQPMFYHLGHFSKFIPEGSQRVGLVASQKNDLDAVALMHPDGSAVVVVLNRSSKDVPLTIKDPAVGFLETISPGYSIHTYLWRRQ
Description: For the pulldown of recombinant protein utilizing LIMP-2-derived peptides, 2 nmol of protein (GC, LAMAN and BSA) was incubated overnight at 4° C. with the ten-fold molecular amount (20 nmol) of biotinylated LIMP-2-derived peptides (helix 5, 3×D as well as TAT-peptides (see Table 1)) at neutral pH. The total incubation volume was 250 μl (50 mM NaPhosphate buffer, 150 mM NaCl, pH7). ‘High Capacity Streptavidin Beads’ (Thermo Fisher Scientific, Waltham, USA) were blocked with 1% BSA solution and equilibrated with the NaPhosphate buffer. For each pulldown 50 μl of beads were utilized and incubated with 200 μl enzyme/peptide mixture for 30 min. at room temperature. The remaining 50 μl of the enzyme/peptide samples were prepared for SDS-PAGE (INPUT fraction). After incubation of the beads with the enzyme/peptide mixture the samples were centrifuged for 1 min. at 1,500×g at 4° C. The supernatant was removed and stored at 4° C. (UNBOUND fraction). Subsequently, the beads were washed three times with NaPhosphate buffer followed by centrifugation at 4,000 rpm at room temperature. […] The INPUT and BOUND fractions of the pulldown experiments were loaded on a NuPAGE® Novex® 4-12% Bis-Tris gels (Thermo Fisher Scientific, Waltham, USA), subjected to electrophoresis and stained with coomassie (Brilliant Blue, R-250; BioRad). After destaining the gels were scanned.

[4] = system: α-synuclein in H4 cells stably overexpressing α-synuclein; details: doxycycline, 74 hrs post incubation, compared to 3×D control peptide
Description: For Western blotting 20-40 μg of protein was loaded on a 10% Tris-SDS (made in house) or 4-12% Bis-Tris/NuPAGE Novex gel system (Thermo Fisher Scientific), subjected to electrophoresis, and blotted on nitrocellulose or PVDF membranes [2 h at 4° C. and 0.85 ampere (A) constant]. Membranes were blocked in 5% (wt/vol) milk Tris-buffered saline (TBS-T, pH 7.4, 0.1% Tween-20), and primary antibodies were incubated overnight (for more details on antibody dilutions see Table 4). PVDF membranes for α-synuclein detection were postfixed in 0.4% paraformaldehyde (PFA) (Polysciences Inc.) for 20 min after blotting. Signals were normalized to the respective loading controls [actin, neuronal-specific enolase (NSE), or GAPDH] […] Primary antibodies were incubated overnight at 4° C. After three washing steps in TBS-T the membranes were incubated for 1 h with the respective secondary antibody at room temperature. After the membrane was washed again three times with TBS-T, the signal of the antibody was detected using a chemiluminescence detection system (LAS4000; GE Healthcare Life Sciences) or by scanning on an infrared imager (Odyssey; LI-COR Biosciences).
The α-synuclein turn-over rate in the presence of the LIMP-2-derived peptides was assessed in human neuroglioma cells (H4), stably overexpressing α-synuclein. […]

Chain of bovine serum albumin (BSA) (P02769 25-607): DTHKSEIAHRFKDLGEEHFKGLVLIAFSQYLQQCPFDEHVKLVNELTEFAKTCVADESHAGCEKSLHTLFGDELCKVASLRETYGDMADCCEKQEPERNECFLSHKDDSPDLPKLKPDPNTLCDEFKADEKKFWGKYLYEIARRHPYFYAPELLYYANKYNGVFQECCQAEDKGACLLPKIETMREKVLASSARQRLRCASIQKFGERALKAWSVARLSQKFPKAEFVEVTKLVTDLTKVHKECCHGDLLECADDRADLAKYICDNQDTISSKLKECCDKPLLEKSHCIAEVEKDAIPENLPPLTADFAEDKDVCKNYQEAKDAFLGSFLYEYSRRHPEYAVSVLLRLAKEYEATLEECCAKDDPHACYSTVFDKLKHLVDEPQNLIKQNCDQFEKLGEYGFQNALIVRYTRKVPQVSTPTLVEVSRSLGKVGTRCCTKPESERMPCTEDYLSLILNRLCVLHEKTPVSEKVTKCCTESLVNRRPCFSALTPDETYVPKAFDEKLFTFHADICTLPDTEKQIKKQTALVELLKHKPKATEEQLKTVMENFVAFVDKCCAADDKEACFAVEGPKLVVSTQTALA

| Substance | interaction with albumin (BSA) [1] | interaction with recombinant α-mannosidase (LAMAN) [2] | precipitation of recombinant N370S mutant GC [3] | α-synuclein levels [4] |
| --- | --- | --- | --- | --- |
| Biotin-Ttds-LREIIEAMLKAYQQKLFVTHTVDE [helix 5 peptide] | no interaction | no interaction | – | – |
| Biotin-Ttds-KFERQLREIIEAMLKAYQQKLFVTHTVDEYGRKKRRQRRR [helix 5 TAT-peptide] | – | – | as efficiently as recombinant wild-type GC | significant reduction |
